From ChEMBL document CHEMBL3879915, “Methods of inhibiting PRMT5” (2014)

Legend:
[1] = target: PRMT5/MEP50 complex (Homo sapiens, UniProt O14744); assay: Inhibition of recombinant human fetal brain FLAG-tagged PRMT5/full length human testis 6His-tagged MEP50 expressed in baculovirus infected insect Sf9 cells using human histone H4 (1 to 15 residues) as substrate preincubated for 30 mins followed by [3H]-SAM addition
[2] = target: Protein arginine N-methyltransferase 5 (Homo sapiens, UniProt O14744); assay: Inhibition of PRMT5 in human Z138 cells assessed as decrease in di-methyl arginine levels after 96 hrs by Western blot method; assay type: cell-based
[3] = Antiproliferative activity against human Z138 cells assessed as inhibition of cell viability after 5 days by Cell-Titer Glo assay; assay type: functional, cell-based; settings: Z-138, 120 h

Protein arginine N-methyltransferase 5, sequence (O14744 whole entry): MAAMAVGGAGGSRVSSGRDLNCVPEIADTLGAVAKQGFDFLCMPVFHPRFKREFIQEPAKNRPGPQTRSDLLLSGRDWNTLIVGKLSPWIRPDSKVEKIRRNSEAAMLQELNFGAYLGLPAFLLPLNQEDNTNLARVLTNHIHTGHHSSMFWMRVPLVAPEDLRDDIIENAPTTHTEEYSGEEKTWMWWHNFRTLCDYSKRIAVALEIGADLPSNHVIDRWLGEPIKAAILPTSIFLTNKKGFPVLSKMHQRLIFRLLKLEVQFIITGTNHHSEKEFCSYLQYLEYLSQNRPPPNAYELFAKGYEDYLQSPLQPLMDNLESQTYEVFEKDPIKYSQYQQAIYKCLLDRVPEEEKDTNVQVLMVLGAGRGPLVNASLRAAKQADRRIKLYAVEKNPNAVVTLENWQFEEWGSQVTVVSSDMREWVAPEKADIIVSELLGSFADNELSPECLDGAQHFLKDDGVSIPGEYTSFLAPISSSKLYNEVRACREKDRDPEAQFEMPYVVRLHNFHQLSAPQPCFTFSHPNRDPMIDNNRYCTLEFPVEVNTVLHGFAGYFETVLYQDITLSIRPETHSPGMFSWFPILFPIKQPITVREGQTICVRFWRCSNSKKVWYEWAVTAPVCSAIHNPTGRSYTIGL
PRMT5/MEP50 complex, sequence (O14744 whole entry, the tested form may be a part): as the sequence (O14744 whole entry) above
PRMT5/MEP50 complex, sequence (Q9BQA1 whole entry, further chain, the tested form may be a part): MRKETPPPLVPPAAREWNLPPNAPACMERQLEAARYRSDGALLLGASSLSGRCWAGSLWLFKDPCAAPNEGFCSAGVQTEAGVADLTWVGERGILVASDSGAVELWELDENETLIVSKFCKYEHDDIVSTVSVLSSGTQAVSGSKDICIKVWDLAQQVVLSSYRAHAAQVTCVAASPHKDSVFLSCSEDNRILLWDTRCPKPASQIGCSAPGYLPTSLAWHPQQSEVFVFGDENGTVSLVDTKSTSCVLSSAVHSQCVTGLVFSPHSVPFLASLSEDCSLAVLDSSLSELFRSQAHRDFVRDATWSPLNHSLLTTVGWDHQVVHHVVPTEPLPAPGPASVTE

| Structure (SMILES) | IC50 [1] [nM] | EC50 [2] [nM] | EC50 [3] [nM] |
| --- | --- | --- | --- |
| N#Cc1cccc(OCC(=O)NCC(O)CN2CCc3ccccc3C2)c1 (configuration not stated) | 101 to 1000 | 101 to 1000 | 10000 to 50000 |
| O=C(COc1cccc2ccccc12)NCC(O)CN1CCc2ccccc2C1 (configuration not stated) | < 100 | 101 to 1000 | 1000 to 10000 |
| CS(=O)(=O)c1cccc(-c2cccc(OCC(O)CN3CCc4ccccc4C3)c2)c1 (configuration not stated) | 101 to 1000 | 1000 to 10000 | > 20000 |
| Cn1nccc1C(=O)Nc1cccc(OCC(O)CN2CCc3ccccc3C2)c1 (configuration not stated) | 1000 to 10000 | 1000 to 10000 | > 20000 |
| O=C(COc1ccccc1S(=O)(=O)N1CCOCC1)NCC(O)CN1CCc2ccccc2C1 (configuration not stated) | < 100 | 101 to 1000 | – |
| OC(COc1cccc(-c2cnc3ccccc3c2)c1)CN1CCc2ccccc2C1 (configuration not stated) | 101 to 1000 | 1000 to 10000 | 10000 to 40000 |
| O=C(Cn1cnc2ccc(-c3cccc(OCC(O)CN4CCc5ccccc5C4)c3)cc21)N1CCOCC1 (configuration not stated) | 101 to 1000 | 1000 to 10000 | 1000 to 10000 |
| O=C1CN(c2ccccc2F)CCN1CC(O)CN1CCc2ccccc2C1 (configuration not stated) | – | > 50000 | – |
| OC(COc1cccc(-c2ncc3ccn(C4CCNCC4)c3n2)c1)CN1CCc2ccccc2C1 (configuration not stated) | < 100 | 101 to 1000 | 1000 to 10000 |
| O=C(NCC(O)CN1Cc2ccccc2C1)c1cccc(NC2CCOCC2)c1 (configuration not stated) | 101 to 1000 | 101 to 1000 | – |
| CC(=O)N1CCC(n2ccc3cnc(-c4ccnc(NCC(O)CN5CCc6ccccc6C5)c4)nc32)CC1 (configuration not stated) | < 100 | < 100 | 101 to 1000 |
| O=C(NCC(O)CN1CCc2ccccc2C1)c1cccc(NC2CCOCC2)c1 (configuration not stated) | < 100 | < 100 | 101 to 1000 |
| O=C(NC[C@H](O)CN1CCc2ccccc2C1)Nc1ccccc1 | 101 to 1000 | 101 to 1000 | > 20000 |
| CC(=O)Nc1ccc(C(=O)NCC(O)CN2CCc3ccccc3C2)cc1 (configuration not stated) | 101 to 1000 | 101 to 1000 | > 20000 |
| CC(C)Oc1ccc(F)c(-c2cccc(OCC(O)CN3CCc4ccccc4C3)c2)c1 (configuration not stated) | 101 to 1000 | 1000 to 10000 | > 20000 |
| CC(=O)N1CCC(n2ccc3cnc(-c4cccc(OCC(O)CN5CCc6ccccc6C5)c4)nc32)CC1 (configuration not stated) | 101 to 1000 | 101 to 1000 | 1000 to 10000 |
| O=C(COc1ccccc1-c1cc[nH]n1)NCC(O)CN1CCc2ccccc2C1 (configuration not stated) | < 100 | < 100 | 1000 to 10000 |
| CN(C)CCOc1ccccc1OCC(=O)NC[C@@H](O)CN1CCc2ccccc2C1 | 101 to 1000 | 1000 to 10000 | – |
| O=C1CN(c2cccc(Cl)c2)CCN1CC(O)CN1CCc2ccccc2C1 (configuration not stated) | < 100 | 1000 to 10000 | – |
| OC(COc1cccc(-c2ccccc2F)c1)CN1CCc2ccccc2C1 (configuration not stated) | 101 to 1000 | 1000 to 10000 | – |
| O=C(Cc1cccc2cccnc12)NCC(O)CN1CCc2ccccc2C1 (configuration not stated) | 101 to 1000 | 1000 to 10000 | – |

| Structure (SMILES) | IC50 [1] [nM] | EC50 [2] [nM] | EC50 [3] [nM] |
| --- | --- | --- | --- |
| CS(=O)(=O)c1ccccc1OCC(=O)NCC(O)CN1Cc2ccccc2C1 (configuration not stated) | 101 to 1000 | 101 to 1000 | – |
| Cc1cn(C)c2cccc(OCC(=O)NCC(O)CN3CCc4ccccc4C3)c12 (configuration not stated) | < 100 | 101 to 1000 | – |
| Cn1ccnc1-c1ccccc1OCC(=O)NCC(O)CN1CCc2ccccc2C1 (configuration not stated) | 101 to 1000 | 1000 to 10000 | – |
| COc1cc(Cl)cc(-c2cccc(OCC(O)CN3CCc4ccccc4C3)c2)c1 (configuration not stated) | 101 to 1000 | > 20000 | – |
| Cn1nccc1-c1cccc(CC(=O)NCC(O)CN2CCc3ccccc3C2)c1 (configuration not stated) | 101 to 1000 | 101 to 1000 | – |
| O=c1cc(-c2ccccc2)ccn1C[C@H](O)CN1CCc2ccccc2C1 | – | > 50000 | – |
| Cn1cnc2ccc(NCC(=O)NCC(O)CN3CCc4ccccc4C3)cc21 (configuration not stated) | 101 to 1000 | 1000 to 10000 | – |
| OC(COc1ccc(-n2cncn2)cc1)CN1CCc2ccccc2C1 (configuration not stated) | 1000 to 10000 | – | > 20000 |
| O=C(NCC(O)CN1CCc2ccccc2C1)c1cccc(NC2CCOC2)c1 (configuration not stated) | < 100 | 101 to 1000 | – |
| CN1CCC(OCC(O)CN2CCc3ccccc3C2)C1 (configuration not stated) | > 40000 | – | > 40000 |
| CC(C)(C)OC(=O)N1CCC(OCC(O)CN2CCc3ccccc3C2)CC1 (configuration not stated) | 1000 to 10000 | – | > 40000 |
| O=S1(=O)CCN(c2ccc(OCC(O)CN3CCc4ccccc4C3)cc2)CC1 (configuration not stated) | 1000 to 10000 | – | > 20000 |
| O=C(NC[C@@H](O)CN1CCc2ccccc2C1)Oc1ccccc1 | < 100 | 1000 to 10000 | – |
| OC(COCC1COc2ccccc2O1)CN1CCc2ccccc2C1 (configuration not stated) | 101 to 40000 | – | > 40000 |
| O=C(Nc1cccc(OCC(O)CN2CCc3ccccc3C2)c1)c1cccnc1 (configuration not stated) | 1000 to 10000 | 1000 to 10000 | – |
| Cc1ccccc1N1CCN(CC(O)CN2CCc3ccccc3C2)C(=O)C1 (configuration not stated) | – | > 50000 | – |
| N#CCc1cccc(-c2cccc(OCC(O)CN3CCc4ccccc4C3)c2)c1 (configuration not stated) | 101 to 1000 | 1000 to 10000 | – |
| CN1CCC(OCC(O)CN2CCc3ccccc3C2)CC1 (configuration not stated) | > 40000 | – | > 40000 |
| O=C(COc1ccccc1N1CCOCC1)NC[C@@H](O)CN1CCc2ccccc2C1 | 101 to 1000 | 101 to 1000 | – |
| CN1CCN(c2ccccc2OCC(=O)NC[C@@H](O)CN2CCc3ccccc3C2)CC1 | 1000 to 10000 | 1000 to 10000 | – |
| Cn1cc2ccc(-c3cccc(OCC(O)CN4CCc5ccccc5C4)c3)cc2n1 (configuration not stated) | 101 to 1000 | > 20000 | – |

| Structure (SMILES) | IC50 [1] [nM] | EC50 [2] [nM] | EC50 [3] [nM] |
| --- | --- | --- | --- |
| O=C(c1ccc(Cn2ccc(-c3ccc(OCC(O)CN4CCc5ccccc5C4)cc3)n2)cc1)N1CCCC1 (configuration not stated) | 1000 to 10000 | – | 10000 to 40000 |
| OC(COc1ccc(C2CCNCC2)cc1)CN1CCc2ccccc2C1 (configuration not stated) | 1000 to 10000 | – | 10000 to 40000 |
| O=c1cc(-c2ccccc2)ccn1C[C@@H](O)CN1CCc2ccccc2C1 | – | > 50000 | – |
| OC(COc1cccc(CNC2CCCC2)c1)CN1Cc2ccccc2C1 (configuration not stated) | 1000 to 10000 | – | 10000 to 50000 |
| OC(COC1CCCCCC1)CN1CCc2ccccc2C1 (configuration not stated) | 1000 to 10000 | – | > 40000 |
| CCN(c1cccc(C(=O)NCC(O)CN2CCc3ccccc3C2)c1)C1CCOCC1 (configuration not stated) | 101 to 1000 | 101 to 1000 | – |
| CCCCNCc1cccc(COCC(O)CN2CCc3ccccc3C2)c1 (configuration not stated) | 101 to 1000 | – | > 20000 |
| O=C(NCC(O)CN1CCc2ccccc2C1)c1cccc(OC2CCOCC2)c1 (configuration not stated) | 101 to 1000 | 101 to 1000 | – |
| OC(COC1Cc2ccccc2C1)CN1CCc2ccccc2C1 (configuration not stated) | 1000 to 10000 | – | > 40000 |
| Cc1nn(-c2ccccc2)c(C)c1COCC(O)CN1CCc2ccccc2C1 (configuration not stated) | 1000 to 10000 | – | > 40000 |
| O=C(Nc1cccc(OCC(O)CN2CCc3ccccc3C2)c1)c1cccnn1 (configuration not stated) | 1000 to 10000 | 1000 to 10000 | – |
| OC(COC1CCCNC1)CN1CCc2ccccc2C1 (configuration not stated) | > 40000 | – | > 40000 |
| COc1cccc2c1CN(CC(O)COc1cccc(CNC3CCCC3)c1)CC2 (configuration not stated) | 10000 to 40000 | – | 10000 to 40000 |
| OC(COCc1ccccc1)CN1CCc2ccccc2C1 (configuration not stated) | 10000 to 40000 | – | > 40000 |
| O=C(COc1ccccc1)NCC(O)CN1CCc2ccccc2C1 (configuration not stated) | 101 to 1000 | 101 to 1000 | – |
| O=C1CN(c2ccc(CO)cc2)CCN1CC(O)CN1CCc2ccccc2C1 (configuration not stated) | 101 to 1000 | 1000 to 10000 | – |
| Cn1cnc2ccc(OCC(=O)NCC(O)CN3CCc4ccccc4C3)cc21 (configuration not stated) | – | 101 to 1000 | 10000 to 50000 |
| O[C@H](COc1cccc(CNC2CCCC2)c1)CN1CCc2ccccc2C1 | 101 to 1000 | – | 10000 to 40000 |
| CC(C)(C)OC(=O)Nc1cccc(C(=O)NCC(O)CN2Cc3ccccc3C2)c1 (configuration not stated) | 101 to 1000 | 1000 to 10000 | – |
